Data: patent US7713994B2 (Wyeth LLC, priority 2005, dated 2010)

Target: T1, IGF1-receptor kinase (Homo sapiens, UniProt P08069)
T1 construct: Purified GST-IGFR; purified Bis-IGFR and Tris-IGFR; fused on or other part: GST with a thrombin cleavage site, removed in the Bis-IGFR and Tris-IGFR forms
Experiment: IGF1-R kinase assay (96-well FRET Lance)
Type: biochemical
Conditions: 10 uM compound
Source text: • TITLE: 96-well assay for inhibitors of IGF1-receptor kinase activity • SHORT TITLE: IGF1-R kinase assay • PURPOSE: Identify inhibitors of IGF-1 receptor kinase activity • MATERIALS AND METHODS: Overview: This is a 96-well FRET (Lance) tyrosine kinase assay. • Materials: • Purified GST-IGFR; purified Bis-IGFR and Tris-IGFR; expressed in ExpresSF insect cells. Bis and Tris IGFR are made by phosphorylating the IGFR in the presence of ATP and Mg2+, followed by thrombin cleavage to remove the GST-thrombin cleavage site, and purification by HPLC. The Bis and tris IGFR are phosphorylated on two (bis) or all three tyrosines (tris) in the activation loop. • Biotinylated peptide with a sequence corresponding to the sequence surrounding the autophosphorylation sites in IGF1-R Biotin-NH2-[…]-OH (Anaspec) • Europium-conjugated phosphotyrosine antibody (PT66) (Perkin-Elmer). • Surelight APC (Perkin-elmer) • Plates: 96-well Assay plates (polypropylene plates, natural color) • 96-well-Lance plates (Microfluor 2 black plates; Cat # 7205; Thermolabsystems. • ATP: (Amersham Pharmacia Cat # 27-2056-01), 100 mM stock. • IGFR Lance Protocol (96-well format) • Procedure: • Reagents: • Kinase Buffer (10×): • 0.5 M Hepes, pH 7.5 rt • 0.1 M MgCl2 • Quench Buffer (to be added straight, 1:1, to r×n mix): • 50 mM Hepes, pH 7.5 rt • 50 mM EDTA • Lance Detection Buffer: • 20 mM Tris-HCl, pH 7.5 rt • 0.15 M NaCl-150 • 150 ug/ml BSA (Sigma Cat# A-7284) • Eu-labeled phosphotyrosine antibody PT66 (Perkin-Elmer): 1:4000 dilution of 200 μg/ml stock • Streptavidin-APC (Perkin Elmer): 1/250 (4 microgram/ml final) • ATP (Amersham Pharmacia cat #27-2056-01) 100 mM stock: Dilute to 1 mM (10×) in water. […] Transfer 12.5[…] of the kinase reaction to the antibody detection plate. Allow antibody to react for 1 h at rt in the dark. Then read in Victor with an excitation filter of 340 nm and an emission filter of 665 nm. • Compound additions: • When Example compounds are tested, they are added from a 10% DMSO/50 mM Hepes (pH 7.5) 10× stock. 5 microliters of compound in this buffer are added to the enzyme-peptide-buffer mix. After 10′ incubation at room temperature, ATP is added to start the reaction. A no ATP background control is included in the assay. • […] OF RESULTS: Data are analyzed as follows: % Inhibition={[Sample cpm−Bkg cpm]/[No cmpd cpm−Bkg cpm]}×100%. The biological activity of representative Examples of the invention is reported in Table VII as: 0.2 µM≦x≦10 µM or % inhibition@10 µM.

T1 sequence (P08069 999-1274 limits assumed): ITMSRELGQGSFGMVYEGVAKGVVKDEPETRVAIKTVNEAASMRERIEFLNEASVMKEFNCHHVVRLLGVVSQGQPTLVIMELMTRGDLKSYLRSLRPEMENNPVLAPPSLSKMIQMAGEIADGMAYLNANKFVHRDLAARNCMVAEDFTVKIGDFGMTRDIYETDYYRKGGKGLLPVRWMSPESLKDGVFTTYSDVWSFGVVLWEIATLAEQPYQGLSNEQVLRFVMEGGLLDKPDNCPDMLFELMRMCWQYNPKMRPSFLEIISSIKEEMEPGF

Structure (SMILES)	Igfr % Inhibition at 10 uM [%]
COc1cc(Nc2ccc3c(c2)/C(=C/Nc2ccc(CN4CCCCC4)cc2)C(=O)NC3=O)cc(C(F)(F)F)c1 [Example 900]	20

Same assay, conditions: 10 uM compound; read-out: Igfr % Inhibition at 10 uM

Structure (SMILES)	inhibition at 10 µM [%]
Nc1cccc(Nc2ccc3c(c2)/C(=C/Nc2ccc(CN4CCCCC4)cc2)C(=O)NC3=O)c1 [Example 883, (4Z)-6-[(3-aminophenyl)amino]-4-({[4-(piperidin-1-ylmethyl)phenyl]amino}methylene)isoquinoline-1,3(2H,4H)-dione]	33
Cc1cccc(Nc2ccc3c(c2)/C(=C/Nc2ccc(CN4CCCCC4)cc2)C(=O)NC3=O)c1 [Example 884, (4Z)-6-[(3-methylphenyl)amino]-4-({[4-(piperidin-1-ylmethyl)phenyl]amino}methylene)isoquinoline-1,3(2H,4H)-dione]	20
O=C1NC(=O)c2ccc(Nc3cccc(C(F)(F)F)c3)cc2/C1=C/Nc1ccc(CN2CCCCC2)cc1 [Example 886, (4Z)-4-({[4-(piperidin-1-ylmethyl)phenyl]amino}methylene)-6-{[3-(trifluoromethyl)phenyl]amino}isoquinoline-1,3(2H,4H)-dione]	32
CN(C)c1ccc(Nc2ccc3c(c2)/C(=C/Nc2ccc(CN4CCCCC4)cc2)C(=O)NC3=O)cc1 [Example 888, (4Z)-6-{[4-(dimethylamino)phenyl]amino}-4-({[4-(piperidin-1-ylmethyl)phenyl]amino}methylene)isoquinoline-1,3(2H,4H)-dione]	14
O=C1NC(=O)c2ccc(Nc3ccc(Cl)cc3)cc2/C1=C/Nc1ccc(CN2CCCCC2)cc1 [Example 890, (4Z)-6-[(4-chlorophenyl)amino]-4-({[4-(piperidin-1-ylmethyl)phenyl]amino}methylene)isoquinoline-1,3(2H,4H)-dione]	47
CCOC(=O)c1ccc(Nc2ccc3c(c2)/C(=C/Nc2ccc(CN4CCCCC4)cc2)C(=O)NC3=O)cc1 [Example 903, ethyl 4-{[(4Z)-1,3-dioxo-4-({[4-(piperidin-1-ylmethyl)phenyl]amino}methylene)-1,2,3,4-tetrahydroisoquinolin-6-yl]amino}benzoate]	45

Same assay, conditions: 100 micromolar ATP; read-out: Igfr ic50

Structure (SMILES)	IC50 [nM]
Cc1ccccc1Nc1ccc2c(c1)/C(=C/Nc1ccc(CN3CCCCC3)cc1)C(=O)NC2=O [Example 882, 4-[(4-piperidin-1-ylmethyl-phenylamino)-methylene]-6-o-tolylamino-4H-isoquinoline-1,3-dione]	4470
CC(=O)c1cccc(Nc2ccc3c(c2)/C(=C/Nc2ccc(CN4CCCCC4)cc2)C(=O)NC3=O)c1 [Example 885, (4Z)-6-[(3-acetylphenyl)amino]-4-({[4-(piperidin-1-ylmethyl)phenyl]amino}methylene)isoquinoline-1,3(2H,4H)-dione]	360
O=C1NC(=O)c2ccc(Nc3ccccc3)cc2/C1=C/Nc1ccc(CN2CCCCC2)cc1 [Example 887, (4Z)-6-anilino-4-({[4-(piperidin-1-ylmethyl)phenyl]amino}methylene)isoquinoline-1,3(2H,4H)-dione]	208
Cc1ccc(Nc2ccc3c(c2)/C(=C/Nc2ccc(CN4CCCCC4)cc2)C(=O)NC3=O)cc1 [Example 889, (4Z)-6-[(4-methylphenyl)amino]-4-({[4-(piperidin-1-ylmethyl)phenyl]amino}methylene)isoquinoline-1,3(2H,4H)-dione]	394
COc1ccccc1Nc1ccc2c(c1)/C(=C/Nc1ccc(CN3CCCCC3)cc1)C(=O)NC2=O [Example 891]	575
COc1cccc(Nc2ccc3c(c2)/C(=C/Nc2ccc(CN4CCCCC4)cc2)C(=O)NC3=O)c1 [Example 892, (4Z)-6-[(3-methoxyphenyl)amino]-4-({[4-(piperidin-1-ylmethyl)phenyl]amino}methylene)isoquinoline-1,3(2H,4H)-dione]	954
N#Cc1cccc(Nc2ccc3c(c2)/C(=C/Nc2ccc(CN4CCCCC4)cc2)C(=O)NC3=O)c1 [Example 893, 3-{[(4Z)-1,3-dioxo-4-({[4-(piperidin-1-ylmethyl)phenyl]amino}methylene)-1,2,3,4-tetrahydroisoquinolin-6-yl]amino}benzonitrile]	708
NC(=O)c1ccc(Nc2ccc3c(c2)/C(=C/Nc2ccc(CN4CCCCC4)cc2)C(=O)NC3=O)cc1 [Example 894, 4-{[(4Z)-1,3-dioxo-4-({[4-(piperidin-1-ylmethyl)phenyl]amino}methylene)-1,2,3,4-tetrahydroisoquinolin-6-yl]amino}benzamide]	1110
O=C1NC(=O)c2ccc(Nc3ccc4c(c3)CCC4)cc2/C1=C/Nc1ccc(CN2CCCCC2)cc1 [Example 895, (4Z)-6-(2,3-dihydro-1H-inden-5-ylamino)-4-({[4-(piperidin-1-ylmethyl)phenyl]amino}methylene)isoquinoline-1,3(2H,4H)-dione]	7220
O=C1NC(=O)c2ccc(Nc3ccc4c(c3)OCO4)cc2/C1=C/Nc1ccc(CN2CCCCC2)cc1 [Example 896, (4Z)-6-(1,3-benzodioxol-5-ylamino)-4-({[4-(piperidin-1-ylmethyl)phenyl]amino}methylene)isoquinoline-1,3(2H,4H)-dione]	830
N#Cc1ccc(Nc2ccc3c(c2)/C(=C/Nc2ccc(CN4CCCCC4)cc2)C(=O)NC3=O)cc1 [Example 897, 4-{[(4Z)-1,3-dioxo-4-({[4-(piperidin-1-ylmethyl)phenyl]amino}methylene)-1,2,3,4-tetrahydroisoquinolin-6-yl]amino}benzonitrile]	1520
COc1ccc(Nc2ccc3c(c2)/C(=C/Nc2ccc(CN4CCCCC4)cc2)C(=O)NC3=O)cc1 [Example 898, (4Z)-6-[(4-methoxyphenyl)amino]-4-({[4-(piperidin-1-ylmethyl)phenyl]amino}methylene)isoquinoline-1,3(2H,4H)-dione]	868
O=C1NC(=O)c2ccc(Nc3cccc(F)c3)cc2/C1=C/Nc1ccc(CN2CCCCC2)cc1 [Example 899, (4Z)-6-[(3-fluorophenyl)amino]-4-({[4-(piperidin-1-ylmethyl)phenyl]amino}methylene)isoquinoline-1,3(2H,4H)-dione]	3090
CC(=O)c1ccc(Nc2ccc3c(c2)/C(=C/Nc2ccc(CN4CCCCC4)cc2)C(=O)NC3=O)cc1 [Example 901, (4Z)-6-[(4-acetylphenyl)amino]-4-({[4-(piperidin-1-ylmethyl)phenyl]amino}methylene)isoquinoline-1,3(2H,4H)-dione]	6030
N#Cc1ccccc1Nc1ccc2c(c1)/C(=C/Nc1ccc(CN3CCCCC3)cc1)C(=O)NC2=O [Example 902, 2-{[(4Z)-1,3-dioxo-4-({[4-(piperidin-1-ylmethyl)phenyl]amino}methylene)-1,2,3,4-tetrahydroisoquinolin-6-yl]amino}benzonitrile]	3700
O=C1NC(=O)c2ccc(Nc3ccccc3Cl)cc2/C1=C/Nc1ccc(CN2CCCCC2)cc1 [Example 904, (4Z)-6-[(2-chlorophenyl)amino]-4-({[4-(piperidin-1-ylmethyl)phenyl]amino}methylene)isoquinoline-1,3-(2H,4H)-dione]	1700
O=C1NC(=O)c2ccc(Nc3cccc(Cl)c3)cc2/C1=C/Nc1ccc(CN2CCCCC2)cc1 [Example 905]	2620
CN(C)Cc1ccc(N/C=C2\C(=O)NC(=O)c3ccc(Nc4ccccc4)cc32)cc1 [Example 906, (4Z)-6-anilino-4-[({4-[(dimethylamino)methyl]phenyl}amino)methylene]isoquinoline-1,3(2H,4H)-dione]	920
COc1cccc(Nc2ccc3c(c2)/C(=C/Nc2ccc(CN(C)C)cc2)C(=O)NC3=O)c1 [Example 907, (4Z)-4-[({4-[(dimethylamino)methyl]phenyl}amino)methylene]-6-[(3-methoxyphenyl)amino]isoquinoline-1,3(2H,4H)-dione]	1390
COc1ccc(Nc2ccc3c(c2)/C(=C/Nc2ccc(CN(C)C)cc2)C(=O)NC3=O)cc1 [Example 908, (4Z)-4-[({4-[(dimethylamino)methyl]phenyl}amino)methylene]-6-[(4-methoxyphenyl)amino]isoquinoline-1,3(2H,4H)-dione]	566
